Source: the NIST ThermoML archive (doi:10.1016/j.fluid.2010.10.028)

Assay: xn = mol fraction of the nth substance listed
Details: Liquid, Vibrating tube method

CC(C)=O [acetone] + CCCCCCC
Details | mass density [kg/m3]
387.33 K, 39820 kPa, x1 = 0.7024 | 691.19
387.33 K, 44790 kPa, x1 = 0.7024 | 696.6
387.33 K, 44850 kPa, x1 = 0.801 | 707.68
387.33 K, 44910 kPa, x1 = 0.4 | 722
387.33 K, 44910 kPa, x1 = 0.8992 | 722
387.33 K, 49890 kPa, x1 = 0.7024 | 701.8
387.33 K, 54870 kPa, x1 = 0.4 | 732.14
387.33 K, 54870 kPa, x1 = 0.8992 | 732.14
387.33 K, 59840 kPa, x1 = 0.492 | 692.57
387.33 K, 59880 kPa, x1 = 0.7024 | 711.17
387.33 K, 69820 kPa, x1 = 0.801 | 731
387.33 K, 69830 kPa, x1 = 0.4 | 745.58
387.33 K, 69830 kPa, x1 = 0.8992 | 745.58
387.33 K, 79900 kPa, x1 = 0.801 | 739.02
387.33 K, 84880 kPa, x1 = 0.801 | 742.74
387.33 K, 89860 kPa, x1 = 0.801 | 746.32
387.33 K, 99770 kPa, x1 = 0.7024 | 741.29
387.33 K, 99830 kPa, x1 = 0.801 | 753.17
387.33 K, 114840 kPa, x1 = 0.801 | 762.65
387.33 K, 124840 kPa, x1 = 0.801 | 768.53
387.33 K, 129850 kPa, x1 = 0.801 | 771.37
387.34 K, 1350 kPa, x1 = 0.492 | 613.12
387.34 K, 14820 kPa, x1 = 0.7024 | 656.98
387.34 K, 19850 kPa, x1 = 0.492 | 648.12
387.34 K, 24830 kPa, x1 = 0.7024 | 672.45
387.34 K, 24840 kPa, x1 = 0.492 | 655.23
387.34 K, 29850 kPa, x1 = 0.492 | 661.75
387.34 K, 34810 kPa, x1 = 0.7024 | 685.41
387.34 K, 34840 kPa, x1 = 0.492 | 667.74
387.34 K, 39870 kPa, x1 = 0.492 | 673.37
387.34 K, 44860 kPa, x1 = 0.492 | 678.6
387.34 K, 49850 kPa, x1 = 0.492 | 683.53
387.34 K, 54850 kPa, x1 = 0.492 | 688.17
387.34 K, 54880 kPa, x1 = 0.7024 | 706.61
387.34 K, 64820 kPa, x1 = 0.492 | 696.75
387.34 K, 64880 kPa, x1 = 0.7024 | 715.51
387.34 K, 69860 kPa, x1 = 0.7024 | 719.63
387.34 K, 69930 kPa, x1 = 0.492 | 700.84
387.34 K, 74840 kPa, x1 = 0.7024 | 723.6
387.34 K, 74900 kPa, x1 = 0.492 | 704.65
387.34 K, 79840 kPa, x1 = 0.7024 | 727.41
387.34 K, 79890 kPa, x1 = 0.492 | 708.31
387.34 K, 84810 kPa, x1 = 0.7024 | 731.07
387.34 K, 84890 kPa, x1 = 0.492 | 711.86
387.34 K, 89810 kPa, x1 = 0.7024 | 734.6
387.34 K, 89860 kPa, x1 = 0.492 | 715.24
387.34 K, 94770 kPa, x1 = 0.7024 | 737.98
387.34 K, 94840 kPa, x1 = 0.492 | 718.51
387.34 K, 99820 kPa, x1 = 0.492 | 721.68
387.34 K, 104740 kPa, x1 = 0.7024 | 744.46
387.34 K, 104800 kPa, x1 = 0.492 | 724.73
387.34 K, 109720 kPa, x1 = 0.7024 | 747.55
387.34 K, 109770 kPa, x1 = 0.492 | 727.68
387.34 K, 114800 kPa, x1 = 0.7024 | 750.59
387.34 K, 114840 kPa, x1 = 0.492 | 730.61
387.34 K, 119810 kPa, x1 = 0.7024 | 753.51
387.34 K, 119850 kPa, x1 = 0.492 | 733.41
387.34 K, 124820 kPa, x1 = 0.7024 | 756.37
387.34 K, 124850 kPa, x1 = 0.492 | 736.14
387.34 K, 129810 kPa, x1 = 0.7024 | 759.13
387.34 K, 129840 kPa, x1 = 0.492 | 738.77
397.26 K, 1500 kPa, x1 = 0.801 | 626.11
397.26 K, 1680 kPa, x1 = 0.4 | 640.61
397.26 K, 1680 kPa, x1 = 0.8992 | 640.61
397.26 K, 5010 kPa, x1 = 0.4 | 649.41
397.26 K, 5010 kPa, x1 = 0.8992 | 649.41
397.26 K, 14870 kPa, x1 = 0.611 | 638.19
397.26 K, 14980 kPa, x1 = 0.4 | 670.71
397.26 K, 14980 kPa, x1 = 0.8992 | 670.71
397.26 K, 19970 kPa, x1 = 0.4 | 679.48
397.26 K, 19970 kPa, x1 = 0.8992 | 679.48
397.26 K, 29940 kPa, x1 = 0.4 | 694.66
397.26 K, 29940 kPa, x1 = 0.8992 | 694.66
397.26 K, 44910 kPa, x1 = 0.4 | 713.39
397.26 K, 44910 kPa, x1 = 0.8992 | 713.39
397.26 K, 49900 kPa, x1 = 0.4 | 718.87
397.26 K, 49900 kPa, x1 = 0.8992 | 718.87
397.26 K, 54890 kPa, x1 = 0.4 | 724.02
397.26 K, 54890 kPa, x1 = 0.8992 | 724.02
397.26 K, 59880 kPa, x1 = 0.4 | 728.9
397.26 K, 59880 kPa, x1 = 0.8992 | 728.9
397.26 K, 64940 kPa, x1 = 0.611 | 699.14
397.26 K, 69840 kPa, x1 = 0.4 | 738.01
397.26 K, 69840 kPa, x1 = 0.8992 | 738.01
397.26 K, 74820 kPa, x1 = 0.4 | 742.26
397.26 K, 74820 kPa, x1 = 0.8992 | 742.26
397.26 K, 84790 kPa, x1 = 0.4 | 750.27
397.26 K, 84790 kPa, x1 = 0.8992 | 750.27
397.26 K, 89770 kPa, x1 = 0.4 | 754.07
397.26 K, 89770 kPa, x1 = 0.8992 | 754.07
397.26 K, 104690 kPa, x1 = 0.4 | 764.67
